Assays:
[1] = test system: Ischemic Isolated Rat Heart; experiment: Globally ischemic isolated perfused rat heart (Langendorff), protective effect; set-up: species or system Male Sprague-Dawley rats; LDH (Lactate Dehydrogenase Release), Reperfusion (Post-Ischemic Event): unit not given here; conditions: 10 µM; for FLOW (coronary flow), Pre-ischemic Event (Post Drug) / HR (Heart Rate), Pre-ischemic Event (Post Drug) / LVDP (Left Ventricular Developed Pressure), Pre-ischemic Event (Post Drug): after 10 minutes drug treatment, n = 4; for FLOW (coronary flow), Pre-ischemic Event (Post Drug) / HR (Heart Rate), Pre-ischemic Event (Post Drug) / LVDP (Left Ventricular Developed Pressure), Pre-ischemic Event (Post Drug) / DP (Double Product), Pre-ischemic Event (Post Drug): before ischemia; for DP (Double Product), Pre-ischemic Event (Post Drug) / DP (Double Product), Reperfusion (Post-Ischemic Event): HR x LVDP divided by 1000; for DP (Double Product), Pre-ischemic Event (Post Drug): lower = more cardiodepressant; for FLOW (coronary flow), Reperfusion (Post-Ischemic Event) / HR (Heart Rate), Reperfusion (Post-Ischemic Event) / LVDP (Left Ventricular Developed Pressure), Reperfusion (Post-Ischemic Event) / DP (Double Product), Reperfusion (Post-Ischemic Event) / LDH (Lactate Dehydrogenase Release), Reperfusion (Post-Ischemic Event): occlusion 25 minutes, reperfusion 30 minutes; for DP (Double Product), Reperfusion (Post-Ischemic Event): higher = more cardioprotective; for LDH (Lactate Dehydrogenase Release), Reperfusion (Post-Ischemic Event): lower = greater cardioprotection
From the text: Grover et al., "Dissociation of Cardiodepression from Cardioprotection with Calcium Antagonists: Diltiazem Protects Ischemic Rat Myocardium with a Lower Functional Cost as Compared with Verapamil and Nifedipine", Journal of Cardiovascular Pharmacology; pages 331-340, Vol. 14, No. 2 (1989), describe a model for testing globally ischemic, isolated rat hearts. This model is expected to be a reliable indicator of protection since the laboratory-induced isolation and ischemic event including perfusion with a cardioplegic solution, reasonably duplicates the environment and conditions for the heart during and after a shock or trauma episode. Grover et al. express the efficacy of protective agents as the amount of lactate dehydrogenase (LDH) release and post-ischemic cardiac function. Lactate dehydrogenase is an enzyme released in the heart during an ischemic event and is an index of cardiac cell necrosis. In the Grover et al. model, this is measured during reperfusion and an agent which provides for lower release levels of LDH is considered to offer greater cardioprotection since lower LDH indicates a smaller infarct size. Cardiac function is determined using the double product (DP) of heart rate times the left ventricular developed pressure (LVDP) divided by 1,000.
The lower the value for DP before the ischemic isolation of the heart for a given agent, the more cardiodepressant it is considered to be and the higher the value of DP is during reperfusion, the more cardioprotective the agent is.
Male Sprague-Dawley rats (450-550 g) were used in all experiments. The rats were anesthetized using 30 mg/kg sodium pentobarbital (i.p.). They were intubated and then treated with i.v. heparin (1000 U/kg). While being mechanically ventilated, their hearts were perfused in situ via retrograde cannulation of the aorta. The hearts were then excised and quickly moved to a Langendorff apparatus where they were perfused with Krebs-Henseleit bicarbonate buffer (112 mM […], 25 mM NaHCO₃, 5 mM KCl, 1.2 mM MgSO₄, 1 mM KH₂PO₄, 1.25 mM CaCl₂, 11.5 mM dextrose, and 2 mM pyruvate bubbled with 95% O₂ - 5% CO₂) at a constant pressure (75 mm Hg). A water filled latex balloon attached to a metal cannula was then inserted into the left ventricle and connected to a Statham pressure transducer for measurement of left ventricular pressure. The hearts were allowed to equilibrate for 15 minutes at which time end diastolic pressure (EDP) was adjusted to 5 mm Hg and this was maintained for 5 minutes. Pre-ischemia or pre-drug function, heart rate and coronary flow (extracorporeal electromagnetic flow probe, Carolina Medical Electronics, King, N.C.) were then measured. Cardiac function was determined using the double product of heart rate (HR) X left ventricular developed pressure (LVDP) divided by 1000. Cardiac temperature was maintained throughout the experiment by submerging the hearts in 37°C buffer which was allowed to accumulate in a stoppered, heated chamber.
Once the baseline measurements were taken, the hearts were treated with 10 µM cromakalim, compounds C', C'', E', E'', F', F'' (n = 4 each) or with vehicle buffer (0.01% DMSO, n = 7). All of these hearts were treated with their respective drugs or vehicle for ten minutes. At this time, post-drug cardiac function and flow were measured and then the hearts were made globally ischemic by shutting off the buffer perfusion. The ischemia was maintained for 25 minutes, the hearts were then reperfused with nondrug treated buffer. Reperfusion was maintained for a total of 30 minutes and at this time reperfusion function and flow were again determined.

rat aorta = experiment: Inhibition of agonist-induced constriction in rat aorta (vasodilation, non-ischemic tissue); conditions: concentration inhibiting agonist-induced constriction by 50 percent, normal
From the text: Also included in the TABLE are the IC₅₀(m) values for rat aorta. The IC₅₀ (rat aorta) value is the concentration of the particular compound which inhibits agonist-induced constriction in rat aorta by 50 percent. Thus, the lower values indicate greater vasodilation and it should be noted that these values are for normal, i.e., non-ischemic, tissue. It can be seen that cromakalim with an IC₅₀ of 5.7 x 10⁻⁸ m is a relatively potent vasodilator in non-ischemic tissue.

SMILES: CC1(C)Oc2ccc(C#N)cc2[C@@H](NC(=NC#N)Nc2ccccc2)[C@@H]1O [C'"]
- FLOW (coronary flow), Pre-ischemic Event (Post Drug) [1]: 15.2
- HR (Heart Rate), Pre-ischemic Event (Post Drug) [1]: 244 beats/min
- LVDP (Left Ventricular Developed Pressure), Pre-ischemic Event (Post Drug) [1]: 134 mmHg
- FLOW (coronary flow), Pre-ischemic Event (Post Drug) ([1]; listed as C"): 20.4
- HR (Heart Rate), Pre-ischemic Event (Post Drug) ([1]; listed as C"): 250 beats/min
- LVDP (Left Ventricular Developed Pressure), Pre-ischemic Event (Post Drug) ([1]; listed as C"): 121 mmHg
- DP (Double Product), Pre-ischemic Event (Post Drug) [1]: 32.7
- DP (Double Product), Pre-ischemic Event (Post Drug) ([1]; listed as C"): 29.8
- FLOW (coronary flow), Reperfusion (Post-Ischemic Event) [1]: 13.2
- HR (Heart Rate), Reperfusion (Post-Ischemic Event) [1]: 244 beats/min
- LVDP (Left Ventricular Developed Pressure), Reperfusion (Post-Ischemic Event) [1]: 74 mmHg
- DP (Double Product), Reperfusion (Post-Ischemic Event) [1]: 18.2
- DP (Double Product), Reperfusion (Post-Ischemic Event) ([1]; listed as C"): 14.8
- FLOW (coronary flow), Reperfusion (Post-Ischemic Event) ([1]; listed as C"): 10.1
- HR (Heart Rate), Reperfusion (Post-Ischemic Event) ([1]; listed as C"): 240 beats/min
- LVDP (Left Ventricular Developed Pressure), Reperfusion (Post-Ischemic Event) ([1]; listed as C"): 62 mmHg
- LDH (Lactate Dehydrogenase Release), Reperfusion (Post-Ischemic Event) [1]: 10.41
- LDH (Lactate Dehydrogenase Release), Reperfusion (Post-Ischemic Event) ([1]; listed as C"): 9.88
- IC50 (rat aorta): 1.37 µM
- IC50 (rat aorta; listed as C"): 0.447 µM

SMILES: CC1(C)Oc2ccc(C#N)cc2C(N2CCCC2=O)C1O (stereo not shown) [Cromakalim, cromakalim, reference compound]
- FLOW (coronary flow), Pre-ischemic Event (Post Drug) [1]: 23.9
- HR (Heart Rate), Pre-ischemic Event (Post Drug) [1]: 250 beats/min
- LVDP (Left Ventricular Developed Pressure), Pre-ischemic Event (Post Drug) [1]: 131 mmHg
- DP (Double Product), Pre-ischemic Event (Post Drug) [1]: 33.0
- FLOW (coronary flow), Reperfusion (Post-Ischemic Event) [1]: 13.9
- HR (Heart Rate), Reperfusion (Post-Ischemic Event) [1]: 234 beats/min
- LVDP (Left Ventricular Developed Pressure), Reperfusion (Post-Ischemic Event) [1]: 87 mmHg
- DP (Double Product), Reperfusion (Post-Ischemic Event) [1]: 20.5
- LDH (Lactate Dehydrogenase Release), Reperfusion (Post-Ischemic Event) [1]: 8.89
- IC50 (rat aorta; Rattus norvegicus): 0.057 µM

SMILES: CC1(C)Oc2ccc(C#N)cc2[C@@H](NC(=S)Nc2ccccc2)[C@@H]1O [E']
- FLOW (coronary flow), Pre-ischemic Event (Post Drug) [1]: 15.3
- HR (Heart Rate), Pre-ischemic Event (Post Drug) [1]: 236 beats/min
- LVDP (Left Ventricular Developed Pressure), Pre-ischemic Event (Post Drug) [1]: 141 mmHg
- FLOW (coronary flow), Pre-ischemic Event (Post Drug) ([1]; listed as E"): 24.8
- HR (Heart Rate), Pre-ischemic Event (Post Drug) ([1]; listed as E"): 234 beats/min
- LVDP (Left Ventricular Developed Pressure), Pre-ischemic Event (Post Drug) ([1]; listed as E"): 128 mmHg
- DP (Double Product), Pre-ischemic Event (Post Drug) [1]: 32.75
- DP (Double Product), Pre-ischemic Event (Post Drug) ([1]; listed as E"): 30.06
- FLOW (coronary flow), Reperfusion (Post-Ischemic Event) [1]: 13.4
- HR (Heart Rate), Reperfusion (Post-Ischemic Event) [1]: 229 beats/min
- LVDP (Left Ventricular Developed Pressure), Reperfusion (Post-Ischemic Event) [1]: 55 mmHg
- DP (Double Product), Reperfusion (Post-Ischemic Event) [1]: 14.83
- DP (Double Product), Reperfusion (Post-Ischemic Event) ([1]; listed as E"): 18.52
- FLOW (coronary flow), Reperfusion (Post-Ischemic Event) ([1]; listed as E"): 17.56
- HR (Heart Rate), Reperfusion (Post-Ischemic Event) ([1]; listed as E"): 230 beats/min
- LVDP (Left Ventricular Developed Pressure), Reperfusion (Post-Ischemic Event) ([1]; listed as E"): 81 mmHg
- LDH (Lactate Dehydrogenase Release), Reperfusion (Post-Ischemic Event) [1]: 13.46
- LDH (Lactate Dehydrogenase Release), Reperfusion (Post-Ischemic Event) ([1]; listed as E"): 8.77
- IC50 (rat aorta): 1.71 µM
- IC50 (rat aorta; listed as E"): 0.805 µM

SMILES: CC1(C)Oc2ccc(C#N)cc2[C@@H](NC(=NC#N)Oc2ccccc2)[C@@H]1O [F']
- FLOW (coronary flow), Pre-ischemic Event (Post Drug) [1]: 16.0
- HR (Heart Rate), Pre-ischemic Event (Post Drug) [1]: 238 beats/min
- LVDP (Left Ventricular Developed Pressure), Pre-ischemic Event (Post Drug) [1]: 128 mmHg
- FLOW (coronary flow), Pre-ischemic Event (Post Drug) ([1]; listed as F"): 28.3
- HR (Heart Rate), Pre-ischemic Event (Post Drug) ([1]; listed as F"): 239 beats/min
- LVDP (Left Ventricular Developed Pressure), Pre-ischemic Event (Post Drug) ([1]; listed as F"): 159 mmHg
- DP (Double Product), Pre-ischemic Event (Post Drug) [1]: 30.5
- DP (Double Product), Pre-ischemic Event (Post Drug) ([1]; listed as F"): 38.02
- FLOW (coronary flow), Reperfusion (Post-Ischemic Event) [1]: 10.4
- HR (Heart Rate), Reperfusion (Post-Ischemic Event) [1]: 212 beats/min
- LVDP (Left Ventricular Developed Pressure), Reperfusion (Post-Ischemic Event) [1]: 28 mmHg
- DP (Double Product), Reperfusion (Post-Ischemic Event) [1]: 6.2
- DP (Double Product), Reperfusion (Post-Ischemic Event) ([1]; listed as F"): 14.72
- FLOW (coronary flow), Reperfusion (Post-Ischemic Event) ([1]; listed as F"): 13.92
- HR (Heart Rate), Reperfusion (Post-Ischemic Event) ([1]; listed as F"): 247 beats/min
- LVDP (Left Ventricular Developed Pressure), Reperfusion (Post-Ischemic Event) ([1]; listed as F"): 59 mmHg
- LDH (Lactate Dehydrogenase Release), Reperfusion (Post-Ischemic Event) [1]: 21.7
- LDH (Lactate Dehydrogenase Release), Reperfusion (Post-Ischemic Event) ([1]; listed as F"): 10.65
- IC50 (rat aorta): > 100 µM
- IC50 (rat aorta; listed as F"): 4.9 µM
